Measured values reported in patent US11566007B2, “Ras inhibitors” (Revolution Medicines, Inc., priority 2019, dated 2023).
pIC50: −log10 of the molar value.

Columns and labels:
[1] = target: KRAS WT (Homo sapiens (Human), UniProt P01116+P62937); assay: Ras-Raf (BRAF RBD) disruption / FRET / MOA assay, KRAS WT; type: biochemical; conditions: read-out: IC50* KRAS WT FRET data
Method in brief: (§1)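 Ternary complex formation (Ras–compound–cyclophilin A) displacing BRAF RBD, monitored by TR-FRET. Three hours at 25° C with compound (top 30 μM final), then 1.5 h with the labelled antibodies. Lower ratio than DMSO indicates disruption; IC50 reported.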

[2] = target: NRAS Q61K (Homo sapiens (Human), UniProt P01111+P62937, Q61K); assay: Ras-Raf (BRAF RBD) disruption / FRET / MOA assay, NRAS Q61K; type: biochemical; conditions: NRAS Q61K; Ras-Raf disruption/FRET/MOA assay; read-out: IC50* NRAS Q61K FRET data
Chain of NRAS Q61K (P01111 whole entry Q61K): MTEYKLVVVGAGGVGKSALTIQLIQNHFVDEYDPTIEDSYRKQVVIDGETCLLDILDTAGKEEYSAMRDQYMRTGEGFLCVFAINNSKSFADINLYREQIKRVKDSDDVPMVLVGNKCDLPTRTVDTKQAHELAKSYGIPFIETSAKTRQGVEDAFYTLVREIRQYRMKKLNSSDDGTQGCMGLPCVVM
Chain of NRAS Q61K (P62937 whole entry): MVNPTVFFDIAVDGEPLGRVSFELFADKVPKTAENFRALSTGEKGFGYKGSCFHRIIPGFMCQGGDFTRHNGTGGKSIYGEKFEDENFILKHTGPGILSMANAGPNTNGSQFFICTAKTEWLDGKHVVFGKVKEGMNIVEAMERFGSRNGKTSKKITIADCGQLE
Method in brief: (§2)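 Compounds were tested as a 10-point 3-fold dilution series from 30 μM final for their ability to drive ternary complex formation between nucleotide-loaded Ras and cyclophilin A, displacing the BRAF RBD. After 3 h at 25° C., anti-His Eu-W1024 (10 nM) and anti-GST allophycocyanin (50 nM) were added for 1.5 h. A TR-FRET ratio decrease versus DMSO gave IC50.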

[3] = tested on: NCI-H358 (K-Ras G12C); assay: CellTiter-Glo cell viability assay, NCI-H358; type: cell-based, human; conditions: Homo sapiens, NCI-H358, 120 h, NCI-H358, 5-day treatment; class symbols; read-out: Additional H358 Cell Viability assay data (K-Ras G12C, IC50)
Method in brief: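 Four-parameter logistic fits were applied to luminescence data normalized against DMSO-treated wells. Readings were taken on day 5 following direct compound addition, after roughly 30 minutes at room temperature.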

[4] = target: KRAS Q61H (Homo sapiens (Human), UniProt P01116+P62937, Q61H); assay: Ras-Raf (BRAF RBD) disruption / FRET / MOA assay, KRAS Q61H; type: biochemical; conditions: Ras-Raf disruption/FRET/MOA assay; class symbols; read-out: KRAS Q61H FRET data IC50
Chain of KRAS Q61H (P01116-2 other isoform, or with tags, fused parts or gaps Q61H): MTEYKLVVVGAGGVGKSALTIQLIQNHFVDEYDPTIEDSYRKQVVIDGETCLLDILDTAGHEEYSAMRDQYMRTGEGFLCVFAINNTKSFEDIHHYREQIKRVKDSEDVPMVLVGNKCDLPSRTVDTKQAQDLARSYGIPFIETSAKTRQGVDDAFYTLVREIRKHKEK
Chain of KRAS Q61H (P62937 whole entry): as the sequence (P62937 whole entry) above
Method in brief: as §2

[5] = target: NRAS G12C (Homo sapiens (Human), UniProt P01111+P62937, G12C); assay: Ras-Raf (BRAF RBD) disruption / FRET / MOA assay, NRAS G12C; type: biochemical; conditions: read-out: IC50* NRAS G12C FRET data
Chain of NRAS G12C (P01111 whole entry G12C): as the sequence (P01111 whole entry Q61K) above, with G12C, K61Q counted along it
Chain of NRAS G12C (P62937 whole entry): as the sequence (P62937 whole entry) above
Method in brief: as §1

[6] = target: KRAS G13D (Homo sapiens (Human), UniProt P01116+P62937, G13D); assay: Ras-Raf (BRAF RBD) disruption / FRET / MOA assay, KRAS G13D; type: biochemical; conditions: read-out: IC50* KRAS G13D FRET data
Chain of KRAS G13D (P01116-2 other isoform, or with tags, fused parts or gaps G13D): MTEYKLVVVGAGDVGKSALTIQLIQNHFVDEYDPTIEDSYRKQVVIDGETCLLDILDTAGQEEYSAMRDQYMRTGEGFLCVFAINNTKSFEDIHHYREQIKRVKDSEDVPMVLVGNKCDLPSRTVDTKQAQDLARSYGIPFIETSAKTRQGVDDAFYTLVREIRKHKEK
Chain of KRAS G13D (P62937 whole entry): as the sequence (P62937 whole entry) above
Method in brief: as §1

[7] = target: NRAS Q61R (Homo sapiens (Human), UniProt P01111+P62937, Q61R); assay: Ras-Raf (BRAF RBD) disruption / FRET / MOA assay, NRAS Q61R; type: biochemical; conditions: NRAS Q61R; Ras-Raf disruption/FRET/MOA assay; read-out: IC50* NRAS Q61R FRET data
Chain of NRAS Q61R (P01111 whole entry Q61R): as the sequence (P01111 whole entry Q61K) above, with K61R counted along it
Chain of NRAS Q61R (P62937 whole entry): as the sequence (P62937 whole entry) above
Method in brief: as §2

[8] = target: KRAS G12D (Homo sapiens (Human), UniProt P01116+P62937, G12D); assay: Ras-Raf (BRAF RBD) disruption / FRET / MOA assay, KRAS G12D; type: biochemical; conditions: Ras-Raf disruption/FRET/MOA assay; class symbols; read-out: KRAS G12D FRET data IC50
Chain of KRAS G12D (P01116-2 other isoform, or with tags, fused parts or gaps G12D): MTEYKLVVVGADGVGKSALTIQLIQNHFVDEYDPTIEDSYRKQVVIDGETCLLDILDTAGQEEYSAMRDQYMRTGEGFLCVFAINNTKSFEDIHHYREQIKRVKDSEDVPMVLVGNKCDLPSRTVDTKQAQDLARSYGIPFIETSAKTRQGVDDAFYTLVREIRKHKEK
Chain of KRAS G12D (P62937 whole entry): as the sequence (P62937 whole entry) above
Method in brief: as §1

[9] = target: K-Ras G12C (Homo sapiens (Human), UniProt P01116+P62937, G12C); assay: Ras-Raf (BRAF RBD) disruption / FRET / MOA assay, KRAS G12C; type: biochemical; conditions: KRAS G12C; Ras-Raf disruption/FRET/MOA assay; read-out: IC50* KRAS G12C FRET data
Chain of K-Ras G12C (P01116-2 other isoform, or with tags, fused parts or gaps G12C): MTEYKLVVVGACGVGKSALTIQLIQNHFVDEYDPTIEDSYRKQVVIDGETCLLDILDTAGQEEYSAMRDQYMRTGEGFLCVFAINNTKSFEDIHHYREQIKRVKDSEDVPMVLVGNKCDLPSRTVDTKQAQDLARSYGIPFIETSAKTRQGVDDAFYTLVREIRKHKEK
Chain of K-Ras G12C (P62937 whole entry): as the sequence (P62937 whole entry) above
Method in brief: as §1

[10] = target: K-Ras G13C (Homo sapiens (Human), UniProt P01116+P62937, G13C); assay: Ras-Raf (BRAF RBD) disruption / FRET / MOA assay, KRAS G13C; type: biochemical; conditions: KRAS G13C; Ras-Raf disruption/FRET/MOA assay; read-out: IC50* KRAS G13C FRET data
Chain of K-Ras G13C (P01116-2 other isoform, or with tags, fused parts or gaps G13C): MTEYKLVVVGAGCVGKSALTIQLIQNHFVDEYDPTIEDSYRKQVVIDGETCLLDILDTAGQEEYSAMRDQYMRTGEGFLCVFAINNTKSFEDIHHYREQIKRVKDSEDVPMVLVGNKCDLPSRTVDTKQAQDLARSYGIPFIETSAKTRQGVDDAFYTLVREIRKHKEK
Chain of K-Ras G13C (P62937 whole entry): as the sequence (P62937 whole entry) above
Method in brief: as §1

[11] = target: KRAS G12V (Homo sapiens (Human), UniProt P01116+P62937, G12V); assay: Ras-Raf (BRAF RBD) disruption / FRET / MOA assay, KRAS G12V; type: biochemical; conditions: read-out: IC50* KRAS G12V FRET data
Chain of KRAS G12V (P01116-2 other isoform, or with tags, fused parts or gaps G12V): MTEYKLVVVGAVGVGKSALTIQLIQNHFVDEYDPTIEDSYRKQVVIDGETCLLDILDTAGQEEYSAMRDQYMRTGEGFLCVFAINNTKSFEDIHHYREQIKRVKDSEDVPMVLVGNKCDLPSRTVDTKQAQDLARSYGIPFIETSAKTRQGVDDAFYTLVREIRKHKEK
Chain of KRAS G12V (P62937 whole entry): as the sequence (P62937 whole entry) above
Method in brief: as §1

[12] = target: KRAS G12S (Homo sapiens (Human), UniProt P01116+P62937, G12S); assay: Ras-Raf (BRAF RBD) disruption / FRET / MOA assay, KRAS G12S; type: biochemical; conditions: Ras-Raf disruption/FRET/MOA assay; class symbols; read-out: KRAS G12S FRET data IC50
Chain of KRAS G12S (P01116-2 other isoform, or with tags, fused parts or gaps G12S): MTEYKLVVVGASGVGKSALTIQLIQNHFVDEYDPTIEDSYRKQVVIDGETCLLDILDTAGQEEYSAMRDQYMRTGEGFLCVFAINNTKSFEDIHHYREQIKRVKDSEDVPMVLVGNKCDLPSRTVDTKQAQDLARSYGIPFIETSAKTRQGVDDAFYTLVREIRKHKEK
Chain of KRAS G12S (P62937 whole entry): as the sequence (P62937 whole entry) above
Method in brief: as §1

Chain of KRAS WT (P01116-2 other isoform, or with tags, fused parts or gaps): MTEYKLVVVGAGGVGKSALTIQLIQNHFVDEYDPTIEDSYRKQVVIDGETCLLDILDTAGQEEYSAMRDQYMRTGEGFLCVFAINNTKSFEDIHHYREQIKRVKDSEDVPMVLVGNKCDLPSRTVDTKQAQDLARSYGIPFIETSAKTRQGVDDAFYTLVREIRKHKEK
Chain of KRAS WT (P62937 whole entry): as the sequence (P62937 whole entry) above

| SMILES | pIC50 [1] | pIC50 [2] | pIC50 [3] | pIC50 [4] | pIC50 [5] | pIC50 [6] | pIC50 [7] | pIC50 [8] | pIC50 [9] | pIC50 [10] | pIC50 [11] | pIC50 [12] |
| --- | --- | --- | --- | --- | --- | --- | --- | --- | --- | --- | --- | --- |
| CCn1c(-c2cccnc2[C@H](C)OC)c2c3cc(ccc31)-c1cccc(c1)C[C@H](NC(=O)[C@H](C(C)C)N1CC[C@]3(CCN(C(=O)C#CC(C)(C)N(C)C)C3)C1=O)C(=O)N1CCC[C@H](N1)C(=O)OCC(C)(C)C2 (atropisomer, axis not shown) [Example A534, (2S)-2-((S)-7-(4-(dimethylamino)-4-methylpent-2-ynoyl)-1-oxo-2,7-diazaspiro[4.4]nonan-2-yl)-N-((6^3S,4S)-1^1-ethyl-1^2-(2-((S)-1-methoxyethyl)pyridin-3-yl)-10,10-dimethyl-5,7-dioxo-6^1,6^2,6^3,6^4,6^5,6^6-hexahydro-1^1H-8-oxa-1(5,3)-indola-6(1,3)-pyridazina-2(1,3)-benzenacycloundecaphane-4-yl)-3-methylbutanamide] | 5.00 to 6.00 | 5.00 to 6.00 | > 8.00 | 6.00 to 7.00 | > 8.00 | 5.00 to 6.00 | 5.00 to 6.00 | 5.00 to 6.00 | > 8.00 | 6.00 to 7.00 | 5.00 to 6.00 | 5.00 to 6.00 |
| CCn1c(-c2cccnc2[C@H](C)OC)c2c3cc(ccc31)-c1csc(n1)C[C@H](NC(=O)[C@H](C(C)C)N(C)C(=O)N(C)C1CN(C(=O)/C=C/C3CN(C)C3)C1)C(=O)N1CCC[C@H](N1)C(=O)OCC(C)(C)C2 (atropisomer, axis not shown) [Example A690] | 6.00 to 7.00 | 6.00 to 7.00 | 6.00 to 7.00 | 6.00 to 7.00 | 6.00 to 7.00 | 6.00 to 7.00 | 6.00 to 7.00 | 5.00 to 6.00 | 6.00 to 7.00 | 6.00 to 7.00 | 5.00 to 6.00 | 6.00 to 7.00 |
| C=CC(=O)N1CC2(C1)OCCN2C(=O)N(C)[C@H](C(=O)N[C@H]1Cc2nc(cs2)-c2ccc3c(c2)c(c(-c2cccnc2[C@H](C)OC)n3CC)CC(C)(C)COC(=O)[C@@H]2CCCN(N2)C1=O)C(C)C (atropisomer, axis not shown) [Example A620] | 6.00 to 7.00 | 7.00 to 8.00 | > 8.00 | 7.00 to 8.00 | > 8.00 | 6.00 to 7.00 | 6.00 to 7.00 | 5.00 to 6.00 | > 8.00 | 6.00 to 7.00 | 6.00 to 7.00 | 6.00 to 7.00 |
| CO[C@@H](C)c1ncccc1-c1c2c3cc(ccc3n1CC(F)(F)F)-c1cccc(c1)C[C@H](NC(=O)[C@@H](COC1CN(C(=O)C#CC(C)(C)N(C)C)C1)C(C)C)C(=O)N1CCC[C@H](N1)C(=O)OCC(C)(C)C2 (atropisomer, axis not shown) [Example A376] | 5.00 to 6.00 | < 5.00 | > 8.00 | 5.00 to 6.00 | > 8.00 | < 5.00 | < 5.00 | < 5.00 | > 8.00 | 5.00 to 6.00 | 5.00 to 6.00 | 5.00 to 6.00 |
| CCn1c(-c2cccnc2[C@H](C)OC)c2c3cc(ccc31)-c1cc(CF)cc(c1)C[C@H](NC(=O)[C@H](C(C)C)N(C)C(=O)[C@H]1CCN(C(=O)C#CC(C)(C)N(C)C)C1)C(=O)N1CCC[C@H](N1)C(=O)OCC(C)(C)C2 (atropisomer, axis not shown) [Example A658] | 5.00 to 6.00 | < 5.00 | > 8.00 | 5.00 to 6.00 | > 8.00 | 5.00 to 6.00 | 5.00 to 6.00 | 5.00 to 6.00 | > 8.00 | 6.00 to 7.00 | 5.00 to 6.00 | 5.00 to 6.00 |
| CCn1c(-c2cccnc2[C@H](C)OC)c2c3cc(ccc31)-c1csc(n1)C[C@H](NC(=O)C[C@H](C)OC1CN(C(=O)C#CC(C)(C)N(C)C)C1)C(=O)N1CCC[C@H](N1)C(=O)OCC(C)(C)C2 (atropisomer, axis not shown) [Example A637] | 5.00 to 6.00 | 5.00 to 6.00 | 7.00 to 8.00 | 5.00 to 6.00 | 7.00 to 8.00 | 5.00 to 6.00 | < 5.00 | < 5.00 | 7.00 to 8.00 | 5.00 to 6.00 | 5.00 to 6.00 | 5.00 to 6.00 |
| C=CC(=O)N1CCC12CN(C(=O)N(C)[C@H](C(=O)N[C@H]1Cc3nc(cs3)-c3ccc4c(c3)c(c(-c3cccnc3[C@H](C)OC)n4CC)CC(C)(C)COC(=O)[C@@H]3CCCN(N3)C1=O)C(C)C)C2 (atropisomer, axis not shown) [Example A393] | 6.00 to 7.00 | 6.00 to 7.00 | 7.00 to 8.00 | 6.00 to 7.00 | 6.00 to 7.00 | 5.00 to 6.00 | 6.00 to 7.00 | 5.00 to 6.00 | 6.00 to 7.00 | 6.00 to 7.00 | 5.00 to 6.00 | 6.00 to 7.00 |
| C=CC(=O)N1CC[C@H](C(=O)N(C)[C@H](C(=O)N[C@H]2CC3=NC=C(O3)c3ccc4c(c3)c(c(-c3cccnc3[C@H](C)OC)n4CC)CC(C)(C)COC(=O)[C@@H]3CCCN(N3)C2=O)C(C)C)C1 (atropisomer, axis not shown) [Example A278] | 5.00 to 6.00 | 5.00 to 6.00 | 6.00 to 7.00 | 5.00 to 6.00 | 6.00 to 7.00 | 5.00 to 6.00 | < 5.00 | < 5.00 | 6.00 to 7.00 | 5.00 to 6.00 | 5.00 to 6.00 | 5.00 to 6.00 |
| C=CC(=O)N1C[C@@H]2CN(C(=O)N(C)[C@H](C(=O)N[C@H]3Cc4nc(cs4)-c4ccc5c(c4)c(c(-c4cccnc4[C@H](C)OC)n5CC)CC(C)(C)COC(=O)[C@@H]4CCCN(N4)C3=O)C(C)C)[C@@H]2C1 (atropisomer, axis not shown) [Example A561] | 5.00 to 6.00 | 6.00 to 7.00 | 6.00 to 7.00 | 6.00 to 7.00 | 6.00 to 7.00 | 5.00 to 6.00 | 5.00 to 6.00 | 5.00 to 6.00 | 6.00 to 7.00 | 6.00 to 7.00 | 5.00 to 6.00 | 5.00 to 6.00 |
| CO[C@@H](C)c1ncccc1-c1c2c3cc(ccc3n1CC(F)(F)F)-c1cccc(c1)CN(NC(=O)[C@@H](COC1CN(C(=O)C#CC(C)(C)N(C)C)C1)C(C)C)C(=O)N1CCC[C@H](N1)C(=O)OCC(C)(C)C2 (atropisomer, axis not shown) [Example A601] | 5.00 to 6.00 | 5.00 to 6.00 | > 8.00 | 5.00 to 6.00 | > 8.00 | 5.00 to 6.00 | 5.00 to 6.00 | < 5.00 | > 8.00 | 6.00 to 7.00 | 5.00 to 6.00 | 5.00 to 6.00 |
| C=CC(=O)N1CC[C@H](C(=O)N(C)[C@H](C(=O)N[C@H]2CC3=NN=C(O3)c3ccc4c(c3)c(c(-c3cccnc3[C@H](C)OC)n4CC)CC(C)(C)COC(=O)[C@@H]3CCCN(N3)C2=O)C(C)C)C1 (atropisomer, axis not shown) [Example A447] | 5.00 to 6.00 | < 5.00 | 6.00 to 7.00 | 5.00 to 6.00 | 6.00 to 7.00 | < 5.00 | < 5.00 | < 5.00 | 6.00 to 7.00 | 5.00 to 6.00 | 5.00 to 6.00 | 5.00 to 6.00 |
| C=CC(=O)N1CCOC2(CCN(C(=O)N(C)[C@H](C(=O)N[C@H]3Cc4nc(n(C)n4)-c4ccc5c(c4)c(c(-c4cccnc4[C@H](C)OC)n5CC(F)(F)F)CC(C)(C)COC(=O)[C@@H]4CCCN(N4)C3=O)C(C)C)CC2)C1 (atropisomer, axis not shown) [Example A606] | 6.00 to 7.00 | 6.00 to 7.00 | 6.00 to 7.00 | 7.00 to 8.00 | 6.00 to 7.00 | 6.00 to 7.00 | 6.00 to 7.00 | 5.00 to 6.00 | 6.00 to 7.00 | 7.00 to 8.00 | 6.00 to 7.00 | 6.00 to 7.00 |
